# In US20080119508A1, “Multi-Route Administration Of Immune Response Modifier Compounds” (3M INNOVATIVE PROPERTIES COMPANY, priority 2004, published 2008):
# Test system: mouse colon carcinoma-26 cells (MC26) expressing luciferase
# Experiment: MC26-luciferase intradermal tumor model, in vivo photon counts (tumor growth index)
# Set-up: species or system Balb/c mice
# Conditions: combination of topical 5% IRM1 (30 microliters at tumor site) and subcutaneous IRM1 10 mg/kg, compared with single routes and vehicles; day 6 results in FIG. 1
# Description: Mice were divided into five groups: topical vehicle, subcutaneous vehicle (SQ vehicle), IRM1 topical (topical IRM1), IRM1 subcutaneous (SQ IRM1), and IRM1 topical and subcutaneous (topical+SQ IRM1). Eighteen hours after injection of the cells, 30 microliters of vehicle or 5% IRM1 topical formulations, described in Table 3, was applied to the tumor site. Six hours later, mice were injected subcutaneously with 10 millograms per kilogram of IRM1 in a 1 milligram per milliliter IRM1, 0.03M citrate buffered saline solution or a vehicle 0.03M citrate buffered saline solution. On days 1, 5, and 6 mice were anesthetized with vaporized 3% isoflurane and in vivo photon counts of luciferin were measured using a Xenogen IVIS imaging system (Alameda, Calif.) following the manufacturer's protocol. The tumor growth index for each treatment group was calculated by dividing each group's day 5 or day 6 tumor photon counts by their day 1 tumor photon counts.
compound,measurement,value
"CCc1nc2c(N)nc3ccccc3c2n1CCCCNS(C)(=O)=O [IRM1, N-[4-(4-amino-2-ethyl-1H-imidazo[4,5-c]quinolin-1-yl)butyl]methanesulfonamide]",tumor growth index (day 5 or day 6 tumor photon counts divided by day 1 tumor photon counts),surprising benefit
